Reference: PMC10146558, “Highly Cytotoxic Copper(II) Mixed-Ligand Quinolinonato Complexes: Pharmacokinetic Properties and Interactions with Drug Metabolizing Cytochromes P450” (Pharmaceutics, 2023)

Key:
[1] = test system: human liver microsomal cytochrome P450s
Method: (§1) The cuvette contained microsomes diluted to final concentration of CYP 1 µM in 50 mM potassium phosphate buffer (pH 7.4). The tested compounds were dissolved in the same buffer, and their concentrations in the experiments ranged from 0.002 to 33.310 µM. The UV-Visible spectra were recorded at room temperature by repetitive scanning between 300 and 700 nm using Varian 500 UV/VIS spectrophotometer (Agilent Technologies, Wakefield, MA, USA). Changes of absorbance in the range of the Soret’s region (380–450 nm) were plotted against the concentration of the studied compounds. Data were analysed using GraphPad Prism 6 software (La Jolla, CA, USA).

CYP2C19 = biological target: T1, CYP2C19 (Homo sapiens, UniProt P33261); test: CYP2C19 activity ((S)-mephenytoin 4′-hydroxylation) in human liver microsomes; type: biochemical; details: free ligand, up to 100 μM
T1 construct: Cryopreserved pooled human liver microsomes were obtained from Xenotech; tissue Xenotech (Lenexa, KS, USA); host or cells: pooled human liver microsomes
T1 sequence (P33261 whole entry): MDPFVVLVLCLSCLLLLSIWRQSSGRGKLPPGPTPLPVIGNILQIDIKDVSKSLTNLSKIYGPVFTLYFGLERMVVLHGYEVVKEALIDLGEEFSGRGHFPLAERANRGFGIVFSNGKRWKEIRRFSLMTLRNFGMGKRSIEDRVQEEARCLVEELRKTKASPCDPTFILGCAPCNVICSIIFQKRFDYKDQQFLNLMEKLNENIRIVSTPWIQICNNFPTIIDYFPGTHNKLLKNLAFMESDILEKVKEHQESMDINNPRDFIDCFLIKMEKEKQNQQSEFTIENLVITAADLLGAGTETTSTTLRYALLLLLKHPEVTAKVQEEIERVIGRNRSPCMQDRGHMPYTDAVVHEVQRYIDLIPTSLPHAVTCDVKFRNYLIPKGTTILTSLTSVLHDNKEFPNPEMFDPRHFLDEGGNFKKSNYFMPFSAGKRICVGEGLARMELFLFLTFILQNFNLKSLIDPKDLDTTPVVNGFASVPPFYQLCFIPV
Method: (§2) For each enzyme assay, the preliminary experiments to determine Michaelis constant (Km) and limiting velocity (Vmax) were performed to calculate the time of incubation (the specified time for which the reaction is still linear) and the values of substrate concentration (in the range corresponding to the value of Km).
(§3) The reaction mixtures were buffered by 0.1 M potassium phosphate buffer (pH 7.4) and contained a NADPH-generating system consisting of the isocitrate dehydrogenase (6 U/mL), NADP^+ (0.5 mM), isocitric acid (4 mM), and MgSO4 (5 mM). The final concentration levels of complexes were obtained by diluting a 10 mM solution with dimethyl sulfoxide (DMSO). It is known that DMSO can in some cases inhibit P450; the following measures were thus applied: (a) control samples containing organic solvent without the tested compounds were prepared and used as references; (b) DMSO levels were maintained below 0.1% to minimise the inhibition. Inhibition experiments were performed using five concentration levels of the tested compounds in the range of 10–100 µM. The maximum concentration was chosen so that in the case of inhibition, it would be possible to determine the inhibitory effect of the complexes and characterise them by determining the IC50 value. Additionally, an inhibitor-free control was used as a reference. Incubations were executed in two independent batches, and the samples were prepared and measured in triplicate at 37 °C. Analyses of the metabolites formed from the specific substrates were performed by HPLC using the Prominence system (Shimadzu, Kyoto, Japan) equipped with a LiChroCART 250-4 LiChrospher 100 RP-18 column, Chromolith® HighResolution RP-18 end-capped column (Merck, Darmstadt, Germany), or Kinetex Biphenyl column (Phenomenex, Torrace, CA, USA).
(§4) The apparent Ki values were determined by additional measurements using substrate concentrations corresponding to 1/2 Km, Km, 2 Km, and 4 Km in the case of inhibition. The type of model was selected on the basis of the Lineweaver–Burk and Dixon plots. The values of IC50 were obtained by analysing the plot of the percentage of activity remaining after inhibition versus the logarithm of the inhibitor concentration using the GraphPad Prism 6 software (La Jolla, CA, USA).

CYP3A4/5 = CYP3A4/5 activity (testosterone 6β-hydroxylation) in human liver microsomes
Method: For each enzyme assay, the preliminary experiments to determine Michaelis constant (Km) and limiting velocity (Vmax) were performed to calculate the time of incubation (the specified time for which the reaction is still linear) and the values of substrate concentration (in the range corresponding to the value of Km). The amount of human liver microsomes (HLM; expressed as the amount of CYP in pmol and the concentration of HLM protein in mg/mL in the reaction vessel) in the reaction was determined using previously established protocols [40].
The reaction mixtures were buffered by 0.1 M potassium phosphate buffer (pH 7.4) and contained a NADPH-generating system consisting of the isocitrate dehydrogenase (6 U/mL), NADP^+ (0.5 mM), isocitric acid (4 mM), and MgSO4 (5 mM). The final concentration levels of complexes were obtained by diluting a 10 mM solution with dimethyl sulfoxide (DMSO). It is known that DMSO can in some cases inhibit P450; the following measures were thus applied: (a) control samples containing organic solvent without the tested compounds were prepared and used as references; (b) DMSO levels were maintained below 0.1% to minimise the inhibition. Inhibition experiments were performed using five concentration levels of the tested compounds in the range of 10–100 µM. The maximum concentration was chosen so that in the case of inhibition, it would be possible to determine the inhibitory effect of the complexes and characterise them by determining the IC50 value. Additionally, an inhibitor-free control was used as a reference. Incubations were executed in two independent batches, and the samples were prepared and measured in triplicate at 37 °C.
The type of model was selected on the basis of the Lineweaver–Burk and Dixon plots. The values of IC50 were obtained by analysing the plot of the percentage of activity remaining after inhibition versus the logarithm of the inhibitor concentration using the GraphPad Prism 6 software (La Jolla, CA, USA).

cytochrome P450 = test system: cytochrome P450; set-up: method as in PMID 26911729; details: ref [50]; cited from earlier work
CYP3A4 = CYP3A4 (Homo sapiens, UniProt P08684); test: CYP3A4 activity (midazolam 1′-hydroxylation) in human liver microsomes; details: Dixon and Lineweaver–Burk plots
Chain of CYP3A4 (P08684 2-503): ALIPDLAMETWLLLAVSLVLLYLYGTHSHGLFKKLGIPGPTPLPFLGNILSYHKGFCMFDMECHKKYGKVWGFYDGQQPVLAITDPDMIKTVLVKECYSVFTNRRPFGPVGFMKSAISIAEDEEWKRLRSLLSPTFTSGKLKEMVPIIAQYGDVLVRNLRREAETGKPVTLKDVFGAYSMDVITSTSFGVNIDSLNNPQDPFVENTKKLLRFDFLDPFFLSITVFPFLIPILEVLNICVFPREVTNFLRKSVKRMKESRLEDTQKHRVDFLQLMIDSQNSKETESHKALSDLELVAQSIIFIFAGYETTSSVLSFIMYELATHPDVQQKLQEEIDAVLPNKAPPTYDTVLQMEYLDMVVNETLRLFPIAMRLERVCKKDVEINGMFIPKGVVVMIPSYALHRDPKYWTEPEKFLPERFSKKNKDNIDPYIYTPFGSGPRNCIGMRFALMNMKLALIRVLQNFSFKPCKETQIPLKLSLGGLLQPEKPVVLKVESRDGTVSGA
Method: as §2, §3, §4

[2] = test system: human liver microsomal cytochrome P450s; test: Difference spectra (UV-visible spectral titration) with human liver microsomes; details: read-out: Ks (spectral binding constant); spectral differences at 386 nm, CYP 1 µM, pH 7.4, room temperature
Method: as §1

## O=c1c(O)c(-c2ccccc2)[nH]c2ccccc12 [Hqui, 2-phenyl-3-hydroxy-1H-quinolin-4-one, reference compound]
[1]
  Changes in difference spectra on interaction with microsomal CYPs: no significant changes
CYP2C19
  Decrease in CYP2C19 activity: 66%
CYP3A4/5; at 100 μM
  CYP3A4/5 activity remaining (testosterone 6β-hydroxylation), % of basal activity: ca. 60%

## CC(=O)CC(C)=O.Cc1ccnc2c1ccc1c(C)ccnc12.O=[N+]([O-])[O-].O=[N+]([O-])[O-].[Cu+2] [[Cu(acac)(4,7-dimethyl-1,10-phenanthroline)(H2O)](NO3)2]
Cytochrome P450
  IC50: ~10 µM

## O.O.O.O=[N+]([O-])[O-].O=[N+]([O-])[O-].[Cu+2] [copper(II) nitrate trihydrate, reference compound]
CYP3A4
  Type of inhibition, CYP3A4 (midazolam 1′-hydroxylation): non-competitive
CYP3A4; read-out: Ki CYP3A4 (midazolam 1′-hydroxylation assay), substrate ½ Km to 4 Km
  Ki: 8.25 ± 1.64 µM
[2]
  Kd: 9.81 ± 0.6 µM
CYP3A4/5; read-out: Ki CYP3A4/5 (testosterone 6β-hydroxylation assay), Dixon and Lineweaver–Burk plots, substrate ½ Km to 4 Km
  Ki: 1.56 ± 0.25 µM

## Cc1cc2cccnc2c2ncccc12 [mphen, 5-methyl-1,10-phenanthroline]
[1]
  Changes in difference spectra on interaction with microsomal CYPs: no significant changes
